In one data set the target is T1, IRAK1 (Homo sapiens, UniProt P51617).
T1 construct: His-TEV-IRAK1 (194-712); His (N); TEV cleavage site (N)
The data set can be described thus: IRAK1 enzymatic assay (ADP-Glo luminescence). Conditions: human recombinant His-TEV-IRAK1 (194-712), ATP 1 μM; read-out: IRAK 1 IC50. In kind it is biochemical. An outline of the steps: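 His-TEV-IRAK1(194-712) ([…]) preincubated 15 min RT with compounds (10 μM–0.5 nM) in 50 mM Hepes pH 7.0, 10 mM MgCl2, 2 mM DTT, 0.1% BSA. Reaction started with 1 μM ATP, 2 h RT. ADP formed read by ADP-Glo luminescence.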
For orientation: ADP-Glo first removes unused ATP, then detects ADP through luciferase.

The test system of data set [1] is TLR7 induced IL-6 secretion in human mononuclear cells (PBMC's). The data set can be described thus: TLR7 induced IL-6 in human PBMC's. Format: cell-based. Conditions: TLR7 specific ligand 2 uM overnight, IL-6 AlphaLISA. An outline of the steps:
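Fresh or frozen healthy-donor PBMCs pre-treated 30 min at 37 °C with compounds (25 uM to 0.4 nM) before overnight (16-18 h) stimulation with TLR7 ligand at 2 uM. IL-6 in supernatant quantified by AlphaLISA.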
On the technique in general: Alpha assays give light when donor and acceptor beads are brought close together.

The target of the next data set is T2, IRAK4 (Homo sapiens, UniProt Q9NWZ3).
T2 construct: His-TEV-IRAK4 (1-460); His (N); TEV cleavage site (N)
T2 sequence (Q9NWZ3 1-460): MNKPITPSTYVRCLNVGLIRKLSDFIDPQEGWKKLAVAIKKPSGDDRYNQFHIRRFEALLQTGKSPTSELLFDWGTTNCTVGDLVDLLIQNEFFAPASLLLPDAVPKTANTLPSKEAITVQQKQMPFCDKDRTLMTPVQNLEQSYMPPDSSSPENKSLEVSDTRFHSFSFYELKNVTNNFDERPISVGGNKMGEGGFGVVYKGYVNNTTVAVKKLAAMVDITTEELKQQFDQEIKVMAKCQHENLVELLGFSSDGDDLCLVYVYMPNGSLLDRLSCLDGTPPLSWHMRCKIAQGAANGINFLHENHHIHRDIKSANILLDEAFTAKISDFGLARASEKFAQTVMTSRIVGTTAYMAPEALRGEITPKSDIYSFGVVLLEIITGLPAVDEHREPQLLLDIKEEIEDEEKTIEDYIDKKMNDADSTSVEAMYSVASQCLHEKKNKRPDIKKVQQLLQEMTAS
Description: IRAK4 enzymatic assay (ADP-Glo luminescence). Format: biochemical. Conditions: human recombinant His-TEV-IRAK4 (1-460), STK1-biotin peptide substrate. In a few lines:
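His-TEV-IRAK4(1-460) at […] was preincubated with compound (10 μM to 0.5 nM) for 15 min at RT in 50 mM Hepes pH 7.0 with MgCl2, MnCl2, DTT, BSA and Triton. Reactions with ATP ([…]) and STK1-biotin peptide (300 nM) ran 2 h at RT. ADP formed was read by ADP-Glo luminescence.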

Some results are limits rather than exact numbers.

By melting point is commonly meant the temperature, or range, at which the solid turns liquid. A word on the IC50: it is the concentration that gives 50% inhibition.

T1 sequence (P51617 194-712): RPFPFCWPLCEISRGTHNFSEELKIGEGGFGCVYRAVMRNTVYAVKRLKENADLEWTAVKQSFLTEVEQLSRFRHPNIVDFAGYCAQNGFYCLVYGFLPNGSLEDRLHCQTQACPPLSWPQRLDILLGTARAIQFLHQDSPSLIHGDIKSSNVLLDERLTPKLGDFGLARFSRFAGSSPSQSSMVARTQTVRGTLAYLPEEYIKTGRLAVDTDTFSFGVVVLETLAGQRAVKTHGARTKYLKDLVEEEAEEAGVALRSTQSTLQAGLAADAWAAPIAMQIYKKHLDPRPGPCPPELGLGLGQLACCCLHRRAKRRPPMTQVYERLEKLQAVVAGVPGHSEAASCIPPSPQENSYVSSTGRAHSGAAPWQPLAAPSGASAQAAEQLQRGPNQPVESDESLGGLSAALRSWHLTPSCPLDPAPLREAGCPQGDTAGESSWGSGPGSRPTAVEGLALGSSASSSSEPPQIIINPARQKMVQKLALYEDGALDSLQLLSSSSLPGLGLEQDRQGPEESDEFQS

As to `CN1CCC(c2ccc3c(c2)nc(NC(=O)c2cccc(C(F)F)c2)n3CCCO)C1=O` (stereo not drawn) [Compound 24, 3-(difluoromethyl)-N-[1-(3-hydroxypropyl)-5-(1-methyl-2-oxopyrrolidin-3-yl)-1H-1,3-benzodiazol-2-yl]benzamide], the melting point lay within 166 to 168 °C. In addition, the IC50 at IRAK1 is 100 to 1000 nM. In data set [1] (Homo sapiens, PBMC), the IC50 is ≤ 100 nM. Moreover, the 50% inhibitory concentration (IC50) on IRAK4 was ≤ 100 nM.

As to `CN1CC(c2ccc3c(c2)nc(NC(=O)c2cccc(C(F)F)c2)n3CCCO)C(C)(C)C1=O` (stereo not drawn) [Compound 27, 3-Difluoromethyl-N-[1-(3-hydroxy-propyl)-5-(1,4,4-trimethyl-5-oxo-pyrrolidin-3-yl)-1H-benzoimidazol-2-yl]-benzamide], the melting point lay within 95 to 96 °C. In addition, on IRAK1, the IC50 was in the range of 100 to 1000 nM. In data set [1] (Homo sapiens, PBMC), the half-maximal inhibitory concentration (IC50) lay within 100 to 1000 nM. For the same compound, on IRAK4, the IC50 was ≤ 100 nM.

As to `CN1C(=O)CCC1(C)c1ccc2c(c1)nc(NC(=O)c1cccc(C(F)(F)F)c1)n2CCCO` (stereo not drawn) [Compound 32, N-[5-(1,2-Dimethyl-5-oxo-pyrrolidin-2-yl)-1-(3-hydroxy-propyl)-1H-benzoimidazol-2-yl]-3-trifluoromethyl-benzamide], the melting point lay within 99 to 100 °C. The IC50 at IRAK1 is 100 to 1000 nM. Moreover, the 50% inhibitory concentration (IC50) in data set [1] (Homo sapiens, PBMC) lay within 1000 to 10000 nM. Besides, the IC50 at IRAK4 was ≤ 100 nM.

Compound `CN1CC(c2ccc3c(c2)nc(NC(=O)c2cccc(C(F)(F)F)c2)n3CCCO)C(C)(C)C1=O` (stereo not drawn) [Compound 25, N-[1-(3-Hydroxy-propyl)-5-(1,4,4-trimethyl-5-oxo-pyrrolidin-3-yl)-1H-benzoimidazol-2-yl]-3-trifluoromethyl-benzamide] showed a melting point of 104 to 106 °C. For the same compound, on IRAK1, the IC50 is ≤ 100 nM. The IC50 in data set [1] (Homo sapiens, PBMC) was in the range of 100 to 1000 nM. In addition, on IRAK4, the IC50 is ≤ 100 nM.

Consider `CN1CCC(C)(c2ccc3c(c2)nc(NC(=O)c2cccc(C(F)(F)F)c2)n3CCCO)C1=O` (stereo not drawn) [Compound 29, N-[5-(1,3-Dimethyl-2-oxo-pyrrolidin-3-yl)-1-(3-hydroxy-propyl)-1H-benzoimidazol-2-yl]-3-trifluoromethyl-benzamide], for which the melting point was in the range of 72 to 74 °C. Also, at IRAK1, the IC50 is 1000 to 10000 nM. For the same compound, the IC50 at IRAK4 is ≤ 100 nM.

The compound `CN1CCC(C)(c2ccc3c(c2)nc(NC(=O)c2cccc(C(F)F)c2)n3CCCO)C1=O` (stereo not drawn) [Compound 30, 3-Difluoromethyl-N-[5-(1,3-dimethyl-2-oxo-pyrrolidin-3-yl)-1-(3-hydroxy-propyl)-1H-benzoimidazol-2-yl]-benzamide] gave a melting point of 78 to 81 °C. Besides, in data set [1] (Homo sapiens, PBMC), the concentration for half-maximal inhibition (IC50) is 1000 to 10000 nM. Moreover, the IC50 at IRAK4 is ≤ 100 nM.

Turning to `CN1CCOC(c2ccc3c(c2)nc(NC(=O)c2cccc(C(F)(F)F)c2)n3CC(C)(F)CO)C1=O` (stereo not drawn) [Compound 28, N-[1-(2-Fluoro-3-hydroxy-2-methyl-propyl)-5-(4-methyl-3-oxo-morpholin-2-yl)-1H-benzoimidazol-2-yl]-3-trifluoromethyl-benzamide], the melting point fell in the range of 121 to 124 °C. The IC50 on IRAK1 lay within 100 to 1000 nM. In addition, the IC50 in data set [1] (Homo sapiens, PBMC) is ≤ 100 nM. Also, the IC50 at IRAK4 is ≤ 100 nM.

With `CN1CCOC(c2ccc3c(c2)nc(NC(=O)c2cccc(C(F)F)c2)n3CC(C)(F)CO)C1=O` (stereo not drawn) [Compound 26, 3-Difluoromethyl-N-[1-(2-fluoro-3-hydroxy-2-methyl-propyl)-5-(4-methyl-3-oxo-morpholin-2-yl)-1H-benzoimidazol-2-yl]-benzamide], the melting point lay within 118 to 120 °C. The IC50 at IRAK1 was 100 to 1000 nM. Further, the IC50 in data set [1] (Homo sapiens, PBMC) was 100 to 1000 nM. For the same compound, at IRAK4, the 50% inhibitory concentration (IC50) is ≤ 100 nM.

For `CN1CCC(C)(c2ccc3c(c2)nc(NC(=O)c2cccc(C(F)(F)F)c2)n3CCCO)C1=O` (single isomer, unassigned) [Compound 29a], the IC50 was 1000 to 10000 nM on IRAK1, 1000 to 10000 nM in data set [1] and ≤ 100 nM at IRAK4.
